Results reported in patent US20090271164A1, “PREDICTING LONG-TERM EFFICACY OF A COMPOUND IN THE TREATMENT OF PSORIASIS” (priority 2008, published 2009).
“And” between values parts separate entries of the source, which are not always exact repeats. Equal values may be shown once. Read-outs that look alike come from different tables or passages of the source.

Tests used:
[1] = system: patients with moderate-to-severe chronic plaque psoriasis; assay: Population PK/PD (exposure-efficacy) modeling with NONMEM and clinical trial simulation of long-term MTX treatment; design: species or system human
From the text: The PK/PD model was built using a non-linear mixed-effects population modeling (NONMEM) approach with NONMEM software (double precision, Version VI) and a NMTRAN pre-processor. Models were compiled using the Intel Visual Fortran compiler (Version 9) on a dual processor workstation (DELL Precision 530) under the Windows 2000 (Service pack 4) operating system.
All 110 MTX-treated subjects in Study M04-716 were included in the population PK/PD analysis.
All the observed PASI scores over the 16-week period in MTX-treated subjects in Study M04-716 were used.
The amount in the central compartment was scaled by the apparent volume of distribution (V/F).
All subjects were assumed to have the typical PK parameter values (i.e., intersubject and intrasubject variabilities were set to zero).
Several PD models were examined. The first model is an indirect response model with an inhibitory effect (Imax and IC50) of Ce (concentration at an effect compartment) on Kin. Kin is the ‘synthesis rate’ into a compartment where PASI scores reside in. The 2nd model examined was similar to the final PD model (see below), except that the rate into the 3rd compartment is Kin·(Emax/(1+EC50/Cp)), rather than Kin·Cp.
The final PD model is a two-step indirect model (as shown below). […] In this model, Compartments 3 and 4 were added as delay/modulator compartments for triggering the observed PASI response.
Kin and Kout are the rate constants into and out of Compartment 3. […] Kout was set equal to Kin. K40 is the rate constant out of Compartment 4, and it controls the persistence of PASI response. PASI is the predicted PASI score, which equals to the baseline PASI score divided by a factor great than one, and the parameter ‘GAM’ influences the steepness of the functional relationship.
For the PD modeling, exponential error models were used to describe the inter-individual errors on the PD parameters Kin and K40.
The evaluation criteria used to select an appropriate PK/PD model are described below: • 1. […] The OFV is equal to −2 times the maximum logarithm of the likelihood of the data (−2LL). Non-hierarchical models are compared based on the AKAIKE criterion. • 2. The observed and predicted PASI scores from a preferred model were more randomly distributed across the line of unity (a straight line with zero intercept and a slope of one) than those from alternative model(s). • 3.
The first-order conditional estimation (FOCE) with INTERACTION method was employed within NONMEM, and a diagonal structure of the n matrix was assumed.
The final population PK/PD model was validated using a bootstrap method (random resampling with replacement). […]

[2] = system: patients with moderate-to-severe chronic plaque psoriasis; assay: Study M04-716 (CHAMPION), 16-week Phase III active- and placebo-controlled trial, PASI 75 response; type: in vivo, human; conditions: for PASI 75 response rate at Week 16: observed, Week 16 relative to Baseline
Experimental: The primary efficacy endpoint was the proportion of subjects achieving at least a 75% reduction in the Psoriasis Area and Severity Index (PASI) score (i.e., ≧PASI 75 response) at Week 16 relative to Baseline (Week 0).
Study M04-716 was a 16-week multicenter, double-blind, and double-dummy study.
PASI scores were assessed prior to the first dose of study drug (Baseline) and at Weeks 1, 2, 4, 8, 12 and 16.
Dose escalation/titration was carried out according to the efficacy and safety criteria defined in the protocol.
In addition, the subjects were candidates for systemic therapy or phototherapy.
The ADA treatment group received 40 mg every-other-week (eow) injections from Week 1, following an 80-mg initial dose. […] Dose escalation was carried out according to the efficacy and safety criteria defined in the study protocol. All study patients received injections as well as oral tablets, regardless of treatment group assignment (double-dummy design) (FIG. 5). Patient outcome was measured using a PASI 75 response: a 75% reduction (improvement) in PASI score at Week 16 compared with the baseline score.

[3] = cited from earlier work
[4] = two-step indirect response model, Run 18
[5] = fixed in the PK model, from the literature

calculated Tmax ([1]; with CL/F = 3 L/day/kg, V/F = 0.6 L/kg, Ka = 10 day^−1)	Compound	simulated PASI 75 response rate at Week 52 greater than that at Week 16 ([1]; difference Week 52 vs Week 16)	K40 = THETA (2), estimate, final PD model [1, 4]	Kin = THETA (1), estimate, final PD model [1, 4]	PASI75 Response Rate (90% CI) Actual (NRI) ([2]; Week 1)	PASI75 Response Rate (90% CI) Actual (NRI) ([2]; Week 2)	PASI75 Response Rate (90% CI) Actual (NRI) ([2]; Week 4)	PASI75 Response Rate (90% CI) Actual (NRI) ([2]; Week 8)	PASI75 Response Rate (90% CI) Actual (NRI) ([2]; Week 16)	PASI 75 response rate at Week 16 [2]	V/F (apparent volume of distribution), values in the literature ([3]; RA)	CL/F (apparent clearance), value used in NONMEM [3, 5]	Ka (first-order absorption rate constant), value used in NONMEM [3, 5]	V/F (apparent volume of distribution), value used in NONMEM [3, 5]	half-life ([3]; in vivo)	Tmax, values in the literature ([3]; leukemic pediatric patients)	Vss (volume of distribution at steady state), values in the literature ([3]; patient population unspecified)	CL/F (apparent clearance), values in the literature ([3]; patients with psoriasis)	Tmax, values in the literature ([3]; patients with psoriasis)	CL/F (apparent clearance), values in the literature ([3]; patients with rheumatoid arthritis (RA))
Tmax would be 3.3 hrs,	CN(Cc1cnc2nc(N)nc(N)c2n1)c1ccc(C(=O)N[C@@H](CCC(=O)O)C(=O)O)cc1 [MTX, methotrexate]	approximately 12%	0.0203 day⁻¹	3.83 day⁻¹	0.0 (0.1, 3.2)	0.0 (0.1, 3.2)	2.7 (0.8, 7.2)	9.1 (5.2, 15.2)	35.5 (28.0, 43.7)	35.5%	0.55 L/kg in RA.^2	2.1 mL/min/kg	10 day⁻¹	0.6 L/kg	2 to 3 h	Tmax = 0.67-4 hrs in leukemic pediatric patients.^3	0.4-0.8 L/kg (Vss).^3	12.4 L/h and 10.8 L/h and 11.5 L/h	Tmax = 2 hrs in patients with psoriasis.	2.1 mL/min/kg in patients with rheumatoid
	adalimumab									79.6%										
